Drawing on PMC3159909, “Alliinase from Ensifer adhaerens and Its Use for Generation of Fungicidal Activity” (AMB Express, 2011), this text covers Km for 3 compounds.

This assay deals with T1, P-19486 alliinase.
T1 construct: homodimer 96 kDa, subunit 48 kDa; PLP-dependent
Put plainly: colorimetric pyruvic acid production. The following applies: 20 uM PLP, 50 mM sodium phosphate pH 7.0, 30°C, read-out: Kinetic constants / Km. Type of assay: biochemical, Ensifer adhaerens. From the text: colorimetric pyruvic acid production on P-19486 alliinase

Where two headings read alike, the source gives them in different places.

For the compound `C=CC[S@+]([O-])C[C@H](N)C(=O)O` [(+)-Alliin], the Km amounted to 5.7 mM.

Turning to `C=CC[S+]([O-])C[C@H](N)C(=O)O` (mixture of isomers) [(±)-Alliin], the Km (diastereomer mixture) was 2.3 mM. For the compound `C=CCSC[C@H](N)C(=O)O` [S-Allyl-L-cysteine], the Km turned out to be 10.6 mM.
